From patent US20250269018A1, “COMBINED CANCER THERAPY WITH AN EPITHELIAL CELL ADHESION MOLECULE (EPCAM) INHIBITOR AND A HEPATOCYTE GROWTH FACTOR RECEPTOR (HGFR) INHIBITOR” (ACADEMIA SINICA, priority 2021, published 2025)
Entries after “also recorded” stand apart in the source; their conditions may differ.

B1: EpAb2-6: anti-EpCAM neutralizing monoclonal antibody targeting EpEX; VH SEQ ID NO: 15, VL SEQ ID NO: 16 (antibody, listed as Homo sapiens, V domains shown)
VH: VKLQESGPELKKPGETVKISCKASGYTFTDYSMHWVKQAPGKGLKWMGWINTETGEPTYADDFKGRFAFSLETSASTAYLQINNLKNEDTATYFCARTAVYWGQGTTVTVSS
VL: DIQMTQSPSSLSASLGERVSLTCRASQEISVSLSWLQQEPDGTIKRLIYATSTLDSGVPKRFSGSRSGSDYSLTISSLESEDFVDYYCLQYASYPWTFGGGTKLEIKRADAAPTVS

Tested on: HCT116 cells
Experiment: Transwell migration/invasion and wound healing assay, HCT116
Format: cell-based, human
Conditions: for EpEX-induced migration and invasion: HCT116 cells, discussion statement; for EpEX-induced invasion: 50 nM EpEX, LY 25 μM, U0 20 μM, PF 10 μM, Transwell with matrigel, FIG. 4K
Description: FIGS. 3A to 3H. EpEX induces the activation of ERK and FAK-AKT signaling pathway. Wild type (WT) or EpCAM knockout (KO) HCT116 cells after EpEX-His treatment. (FIG. 3A) The levels of phosphorylated HGFR, AKT, FAK, GSK3β, ERK, ADAM17, and presenilin 2 were assayed by Western blotting. (FIG. 3B) Colony formation was examined by crystal violet staining. (FIG. 3C) HCT116 cells were treated with TAPI (ADAM17 inhibitor) or DAPT (γ-secretase inhibitor) for 24 hours, and the phosphorylation of HGFR, AKT, and ERK was analyzed by Western blotting, and EpEX protein level in culture medium was examined by immunoprecipitation and Western blotting. (FIG. 3D) HCT116 and HT29 cells were starved for 16 h, then treated with EpEX-His (50 nM) and HGF (0.5 nM) for 15 min. The levels of phosphorylated HGFR, AKT, and ERK were examined by Western blotting. (FIG. 3E) HCT116 cells were starved for 16 h, then treated with 50 nM EpEX-His for 15 min. HGFR inhibitor SU11274 (SU, 10 μM), AKT inhibitor LY294002 (LY, 25 μM), ERK inhibitor U0126 (U0, 20 μM), or FAK inhibitor PF-562271 (PF, 10 μM) were applied 1 h before EpEX treatment. Phosphorylation of AKT, ERK, and FAK was examined by Western blotting. (FIG. 3F) HCT116 cells were starved for 16 h, then treated with 50 nM EpEX, and SU (10 μM), LY (25 μM), U0 (20 μM) or PF (10 μM). Colony formation was examined by crystal violet staining after treatment for 7 days. The relative colony densities are shown. Migration ability was examined by the (FIG. 3G) wound healing assay at the indicated times. (FIG. 3H) The numbers of migration cell was assessed by a Transwell after treatment for 24 h.
FIGS. 4A to 4L. EpEX induces EMT and invasion by stabilizing β-catenin and Snail through decreasing GSK3β activity. (FIG. 4A) The protein expression of EMT markers and regulators was detected by Western blotting in Wild-type (WT) or EpCAM knockout (KO) HCT116 cells after EpEX treatment. (FIG. 4B) Cell invasion was examined by Transwell chamber assay with matrigel. (FIG. 4C) WT or KO HCT116 and HT29 cells were starved for 16 h, then treated with 0.5 nM of HGF with 2% FBS for 24 h. EMT-related protein expression (E-cadherin, vimentin, and Snail) was examined by Western blotting. (FIG. 4D) WT or KO HCT116 and HT29 cells were treated with HGF (0.5 nM) for 24 h. Invasion by HCT116 and HT29 cells was examined by Transwell chamber assay with matrigel. (FIG. 4E) HCT116 and HT29 cells were starved for 16 h, then treated with 0.5 nM of HGF with 2% FBS for 24 h. EMT-related protein expression (E-cadherin, Vimentin, and Snail) was examined by Western blotting. (FIG. 4F) HCT116 and HT29 cells were starved for 16 h, then treated with 0.5 nM of HGF with 2% FBS for 24 h. Cell invasion was assessed by a Transwell assay with matrigel. (FIG. 4G) HCT116 cells after shLuc and shHGFR treatment were treated with 50 nM of EpEX-His. HCT116 cells after shLuc and shHGFR treatment were treated with 50 nM of EpEX-His with 2% FBS for 24 h. EMT-related protein expression (E-cadherin, Vimentin, and Snail) was examined by Western blotting. (FIG. 4H) Cell invasion was examined by Transwell chamber assay with matrigel. (FIG. 4I) Starved HCT116 cells were treated SU (10 μM) for 1 h, followed by treatment with EpEX-His (50 nM) for 24 h. Phosphorylated GSK3β, active-β-catenin, and Snail were detected by Western blotting. (FIG. 4J) HCT116 cells were starved for 16 h, then treated with 50 nM EpEX-His for 24 min. AKT inhibitor LY294002 (25 μM), ERK inhibitor U0126 (20 μM), or PF-562271 (10 μM) were applied 1 h before EpEX treatment. Protein expression of phosphorylated GSK3β and Snail was examined by Western blotting. (FIG. 4K) HCT116 cells were starved for 16 h, then treated with 50 nM EpEX, and SU (10 μM), LY (25 μM), UO (20 μM) or PF (10 μM). Cell invasion was examined by Transwell chamber assay with matrigel. (FIG. 4L) Protein expression was analyzed by Western blotting in EpEX-His (50 nM) treated HCT116 cells after treatment with or without 2 μM GSK3β inhibitor (BIO) for 24 h. […]

Row | Molecule | EpEX-induced migration and invasion | EpEX-induced invasion (HCT116) | invasion and migration activities of HCT116 cells (EpAb2-6 10 μg/ml, wound healing, Transwell with matrigel 24 h) | effects of EpAb2-6 on invasion and migration when treated with HGF after EpAb2-6 (HCT116, EpAb2-6 10 μg/ml and HGF 0.5 nM, FIGS. 6C and 6D)
1 | Cc1[nH]c(C=C2C(=O)Nc3ccc(S(=O)(=O)N(C)c4cccc(Cl)c4)cc32)c(C)c1C(=O)N1CCN(C)CC1 (stereo in doubt) [SU11274, (3Z)-N-(3-Chlorophenyl)-3-({3,5-dimethyl-4-[(4-methylpiperazin-1-yl)carbonyl]-1H-pyrrol-2-yl}methylene)-N-methyl-2-oxo-2,3-dihydro-1H-indole-5-sulfonamide] | attenuate EpEX-induced migration and invasion |  |  | 
2 | N#CC(=C(/N)Sc1ccccc1N)/C(C#N)=C(\N)Sc1ccccc1N [U0126] | attenuate EpEX-induced migration and invasion | suppressed |  | 
3 | CN(c1ncccc1CNc1nc(Nc2ccc3c(c2)CC(=O)N3)ncc1C(F)(F)F)S(C)(=O)=O [PF-562271] | attenuate EpEX-induced migration and invasion | suppressed |  | 
4 | B1 |  |  | significantly reduced; also recorded: attenuate the invasion and migration capacity of HCT116 cells | partially blunted
